Columns and labels:
Format in all cases: cell-based
[1] = system: SK-MEL-5 (human melanoma); assay: MTT cytotoxicity assay, SK-MEL-5; settings: for IC50: MTT, 24 h treatment, mean ± SD; for Selectivity index SK-MEL-5 (column head IC50 (μM)): ratio of IC50 on MDCK cells to IC50 in SK-MEL-5
Description: (§1) The potential cytotoxicity of the isolated anthraquinone derivatives was studied against various cancer cell lines, including SK-MEL-5 (human melanoma), B16F10 (murine melanoma) MCF7 (human breast adenocarcinoma), and MDA-MB-231 (human breast adenocarcinoma) and the normal cell line MDCK (normal kidney epithelial) using the MTT assay. All cell lines were cultured in DMEM medium supplemented with 10% foetal bovine serum (FBS) and streptomycin–penicillin (100 μg/ml each; Hyclone) in a 5% CO2 humidified incubator. An MTT assay was employed to determine the percentage of the viability of various cancer cells as well as MDCK cells. All cells were first cultured in 96-well plates (1 × 10^5 cells/mL for all cancerous cells and 5 × 10^5 cells/mL for MDCK cells) for 24 h, and treated with indicated concentration of isolated compounds (6.25–100 μM for cancerous cells and 6.25–400 μM for MDCK cells). Various dilutions of stock culture were made in the culture medium to get the final concentration of the sample with a 0.1% of DMSO concentration, including the control. After 24 h incubation, MTT reagent was added to each well and the plate was incubated at 37 °C for 1 h. After removing the medium, the plate was washed twice with PBS (pH 7.4). The intracellular insoluble formazan was dissolved in 100% DMSO. A microplate reader was used to measure the absorbance of each cell line at 570 nm, and the percentage of cell viability was calculated. The absorbance value for the average of wells of cells treated with each test sample concentration was expressed as a percentage of this control and the IC50 values for each sample on each cell line were calculated. The anti-cancer drug oxaloplatin was used as a positive control.

[2] = system: B16F10 (murine melanoma); assay: MTT cytotoxicity assay, B16F10; settings: for IC50: MTT, 24 h treatment, mean ± SD; for Selectivity index B16F10 (column head IC50 (μM)): ratio of IC50 on MDCK cells to IC50 in B16F10
Description: as §1

[3] = system: MCF7 (human breast adenocarcinoma); assay: MTT cytotoxicity assay, MCF7; settings: for IC50: MTT, 24 h treatment, mean ± SD; for Selectivity index MCF7 (column head IC50 (μM)): ratio of IC50 on MDCK cells to IC50 in MCF7
Description: as §1

[4] = system: MDA-MB-231 (human breast adenocarcinoma); assay: MTT cytotoxicity assay, MDA-MB-231; settings: for IC50: MTT, 24 h treatment, mean ± SD; for Selectivity index MDA-MB-231: ratio of IC50 on MDCK cells to IC50 in MDA-MB-231
Description: as §1

[5] = system: MDCK (normal kidney epithelial cells); assay: MTT cytotoxicity assay, normal cell line MDCK; settings: 24 h treatment, mean ± SD
Description: as §1

Row | Structure (SMILES) | IC50 ([1]; Homo sapiens, SK-MEL-5) | Selectivity index SK-MEL-5 (column head IC50 (μM)) [1] | IC50 ([2]; Mus musculus, B16-F10) | Selectivity index B16F10 (column head IC50 (μM)) [2] | IC50 ([3]; Homo sapiens, MCF7) | Selectivity index MCF7 (column head IC50 (μM)) [3] | IC50 ([4]; Homo sapiens, MDA-MB-231) | Selectivity index MDA-MB-231 [4] | IC50 ([5]; Canis lupus familiaris, MDCK) | IC50 [1] | IC50 [2] | IC50 [3] | IC50 [4] | IC50 [5]
1 | CC(=O)OC[C@H]1O[C@@H](Oc2cc3c(c(O)c2C)C(=O)c2ccc(O)cc2C3=O)[C@H](O[C@H]2O[C@@H](C)[C@H](O)[C@@H](O)[C@H]2O)[C@@H](O)[C@@H]1O [Compound 1, 2-methyl-1,3,6-trihydroxy-9,10-anthraquinone-3-O-(6′-O-acetyl)-α-rhamnosyl(1 → 2)-β-glucoside] | 91 ± 1.88 µM | 2.11 | 48.68 ± 0.1 µM | 3.95 | 65.5 ± 1.1 µM | 2.94 | 49.4 ± 0.78 µM | 3.89 | 192.3 ± 0.49 µM | – | – | – | – | –
2 | Cc1c(O)cc2c(c1O)C(=O)c1ccc(O)cc1C2=O [Compound 2, 2-methyl-1,3,6-trihydroxy-9,10-anthraquinone] | 46.8 ± 1.39 µM | 3.61 | 77.88 ± 0.34 µM | 2.17 | 80 ± 1.14 µM | 2.11 | 59.22 ± 0.4 µM | 2.85 | 168.8 ± 0.61 µM | – | – | – | – | –
3 | O=C1c2ccccc2C(=O)c2c1ccc(O)c2O [Compound 3, alizarin] | 53.08 ± 0.3 µM | – | 98.8 ± 2.1 µM | – | 49.2 ± 0.85 µM | – | 48.64 ± 0.33 µM | – | 199.3 ± 1.88 µM | – | – | – | – | –
4 | O=C1c2ccccc2C(=O)c2c(O)cc(O)cc21 [Compound 4, xanthopurpurin] | 21.4 ± 0.99 µM | – | 23.7 ± 1.71 µM | – | 15.8 ± 1 µM | – | 14.7 ± 1.45 µM | – | 67.9 ± 1.02 µM | – | – | – | – | –
5 | COCc1c(O)cc2c(c1O)C(=O)c1ccccc1C2=O [Compound 5, lucidin-ω-methyl ether] | 42.8 ± 1.32 µM | 1.85 | 29.5 ± 2.61 µM | 2.68 | 24.1 ± 1.06 µM | 3.28 | 13 ± 0.33 µM | 6.06 | 79.01 ± 0.03 µM | – | – | – | – | –
6 | O=C1[O][Pt]2([NH][C@@H]3CCCC[C@H]3[NH]2)[O]C1=O [Oxaloplatin, oxaloplatin, reference compound] | – | – | – | – | – | – | – | – | – | 14.2 ± 1.02 µM | 10.5 ± 0.92 µM | 8.59 ± 1.22 µM | 7.95 ± 1.92 µM | 24 ± 1.04 µM

Reference: article PMC6029275, “Cytotoxic properties of the anthraquinone derivatives isolated from the roots of Rubia philippinensis” (BMC Complementary and Alternative Medicine, 2018)
